# Like-named read-outs stand apart in the source and are kept apart here.
# Key:
# [1] = molecular target: T1, hP2X7 (Homo sapiens, UniProt Q99572); test: YO-PRO 1 dye uptake assay, HEK-293 cells stably transfected with hP2X7; assay type: cell-based; conditions: for EC50: read-out: ATP EC50
# T1 construct: expressed in transfected cells; host or cells: HEK-293, stably transfected (gift of E. Adinolfi's group, Ferrara University)
# T1 sequence (Q99572 1-595): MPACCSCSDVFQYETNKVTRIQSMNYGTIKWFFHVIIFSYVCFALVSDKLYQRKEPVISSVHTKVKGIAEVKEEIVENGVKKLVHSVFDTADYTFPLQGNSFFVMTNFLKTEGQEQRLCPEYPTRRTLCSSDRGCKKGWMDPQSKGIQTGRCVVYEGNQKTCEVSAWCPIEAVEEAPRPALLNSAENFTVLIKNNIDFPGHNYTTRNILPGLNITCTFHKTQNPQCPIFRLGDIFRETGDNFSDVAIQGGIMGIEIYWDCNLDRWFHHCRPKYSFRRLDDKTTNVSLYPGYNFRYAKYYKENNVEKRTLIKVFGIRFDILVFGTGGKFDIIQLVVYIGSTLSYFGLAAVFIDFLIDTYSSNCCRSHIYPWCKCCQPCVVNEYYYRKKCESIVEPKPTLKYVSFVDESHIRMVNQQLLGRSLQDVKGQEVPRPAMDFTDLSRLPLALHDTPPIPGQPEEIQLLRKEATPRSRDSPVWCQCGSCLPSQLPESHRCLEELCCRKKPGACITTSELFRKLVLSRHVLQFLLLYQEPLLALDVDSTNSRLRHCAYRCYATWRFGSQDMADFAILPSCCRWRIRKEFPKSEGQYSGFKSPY
# Experimental: Astrocytoma 1321 N1 (established by Dr. Gaia Pasqualetto) and HEK-293 (kindly gifted by E. Adinolfi’s group, Ferrara University) both stably transfected with hP2X7, were used to assess the activity of the small molecules selected from the VS. Cells were maintained in DMEM:F12 (PanBiotech) supplemented with 10% FBS, 1% pen-strep, and 150 μg/mL G418 (PanBiotech).
# Astrocytoma 1321 N1 cells (2–2.5 × 10^4 cells/well) and HEK-293 cells (4–5 × 10^4 cells/well) expressing hP2X7 were seeded in poly-L-lysine-coated 96-well plates (Sarstedt) 24 h before the experiment. YO-PRO 1 dye was prepared at 5 μM in extracellular solution with low divalent cations (ECS-LD) buffer (147 mM NaCl, 10 mM HEPES, 13 mM glucose, 0.2 mM CaCl2, 2 mM KCl, pH 7.4) and added to cells after washing them with Dulbecco’s phosphate- buffered saline (DPBS) (PanBiotech) and incubated for 20 min at 37 °C. ATP-induced dye uptake, mediated by hP2X7 activation, was monitored using a Clariostar plate reader (excitation: 485 nm; emission: 538 nm) for 30 cycles (75–150 s/cycle), after recording the baseline for five cycles. hP2X7 activation was quantified at cycle 10 by calculating the fluorescence intensity (FI) ratio (Δ(Fcycle 10–F cycle 1)/cycle time).
# Compounds 2 and 9, identified as hits, were further evaluated for concentration-dependent inhibition (IC50) of hP2X7 activation in the YO-PRO 1 dye uptake assay using HEK-293 cells stably transfected with hP2X7 (unfortunately, at this point in the study, the stably transfected 1321N1 cells lost P2X7 expression, and we were unable to recover them from frozen aliquots), for which the ATP EC50 was determined to be approximately 1 mM (Supporting material Figure 4C). Seven concentrations (100 to 0.03 μM) were tested, but due to precipitation at 100 μM, the DMSO concentration was increased to 1%.
# 3 Inhibitory concentration response evaluation of compounds 2 and 9 and their groups highlighted for SAR. […] Compound activity was evaluated along a time of 20 min (75 s per cycle) after ATP addition (700 μM). The fluorescence intensity (FI) values of the first 10 cycles were considered for assessing their ability to inhibit hP2X7. The curves represent three biological replicates (n = 4 per replicate). Data were normalized by setting as 100% the FI recorded by hP2X7 HEK-293 cells incubated in 1% DMSO and stimulated by ATP, and as 0% the FI recorded by the same cells but treated with ECS-LD (assay buffer). (C) Highlighted areas of compound 2 considered for SAR study. R1 refers to the ethyl-benzyl group of the molecules, and R2 and R3 refer to the benzo-(1,3)-dioxol groups. (D) Highlighted areas of compound 9 considered for SAR study. We have defined the area highlighted in yellow and numbered as 1 as the “front” region of the molecule and the one colored in pink and named as 2 as the “back” region of the molecule. L highlights the urea and amide linkers of compounds 2 and 9, respectively.
# 4 Evaluation of compound 2 and 9 analogue activity using YO-PRO 1 and MPR assays. The activity of compound 2 (A and B) and 9 (C and D) analogues was evaluated in YO-PRO 1 (A and C) and MPR (B and D) assays. The compounds were tested at 10 μM and preincubated for either 20 (YO-PRO 1) or 30 min (MPR). The baseline was recorded for 5 cycles before ATP treatment (1 mM). Fluorescence was recorded for 25 (YO-PRO 1) or 5 min (MPR). The data were normalized by setting as 100% for the fluorescence measured from hP2X7 HEK-293 cells incubated with vehicle (0.1% DMSO) and treated with 1 mM ATP and 0% for the fluorescence recorded by the cells not treated with ATP. The data shown correspond to three independent biological replicates (3 technical replicates per experiment; error bars represent the SEM from the mean values of each biological replicate (n = 3)). The statistical analysis was performed with one-way Anova using Dunnett’s function (P**** < 0.0001; P*** < 0.0003; P** < 0.002; P* < 0.02).
# [2] = system: HEK-293 WT cells; test: Cytotoxicity assay (CellTiter Blue); assay type: cell-based; conditions: 10 μM, 24 h, nontransfected HEK-293 cells
# Experimental: HEK-293 WT cells were seeded at 4 × 10^4 cells/well in 96-well plates precoated with poly-L-lysine. After 24 h, the cells were washed with DPBS and treated with test compounds (10 μM) in 2% FBS-containing medium for 24 h. After this, the medium containing the test compounds was replaced with 20% CellTiter-Blue reagent (Promega) in 2% FBS medium. After a 2-h incubation, fluorescence (excitation: […]; emission: […]) was measured using a Clariostar plate reader. Data were normalized to untreated control cells (100%) and wells without cells (0%).
# 5 Concentration inhibition curve determination for compound 2g (A) and evaluation of cytotoxicity for compounds 2, 9, and 2g. […] The data on the graph represent the mean from three independent experiments (n = 3 replicates per experiment). (B) The cytotoxicity of the compounds was evaluated on nontransfected HEK-293 cells using a CellTiter Blue assay. The cells were incubated for 24 h with the compounds at 10 μM. The fluorescent signal obtained from vehicle-treated cells (0.1% DMSO) was used to normalize the data to 100%, and the one obtained from wells not containing cells (BLANK) was set as 0%. The data are the combination of three biological replicates (error bars represent the SEM (n = 3)) analyzed by one-way ANOVA using Dunnet’s function (P**** < 0.0001; **< 0.002; * < 0.02; ns, non significant).
# The potential cytotoxicity of the hit compounds identified, 2, 9, and 2g, was assessed at 10 μM by CellTiter Blue assay using nontransfected HEK-293 cells (Figure B).
# [3] = YO-PRO 1 uptake, HEK-293 hP2X7 cells
# [4] = Table 1, table names no assay, values of 2 and 9 are from YO-PRO 1 dye uptake in hP2X7 HEK-293 cells, read-out: IC50
"Hill Slope of ATP concentration-response curve [1, 3]","EC50 ([1]; YO-PRO 1 uptake, HEK-293 hP2X7 cells, approximate value)","EC50 [1, 3]","IC50 [1, 4]","IC50 ([1]; YO-PRO 1 dye uptake, hP2X7 HEK-293 cells, 100 to 0.03 μM, 1% DMSO, read-out: IC50, inhibition of hP2X7 activation)",Compound,reduction in cell viability [2]
1.397,~1 mM,1.14 ± 0.239 mM,,,"Nc1ncnc2c1ncn2[C@@H]1O[C@H](COP(=O)(O)OP(=O)(O)OP(=O)(O)O)[C@@H](O)[C@H]1O [ATP, reference compound]",
,,,1880 nM,1870 nM,O=C(NCCc1ccccc1)NC(Cc1ccc2c(c1)OCO2)Cc1ccc2c(c1)OCO2 [Compound 2],~10%
,,,6820 nM,,O=C(CSc1ccccc1C(=O)Nc1ccnn1Cc1cccnc1)Nc1ccc2c(c1)OCO2 [Compound 9],no significant reduction in cell viability

# — PMC12264943, “Identification of New Human P2X7 Antagonists Using Ligand- and Structure-Based Virtual Screening” (Journal of Chemical Information and Modeling, 2025)
